From patent US20230257315A1, “AGRICULTURE COMPOSITIONS AND AP[…] MINERAL COMPOUNDS” (Ralco Nutrition, Inc., priority 2012, published 2023)

What was measured:
corn [1] = assay: Greenhouse study of absorptivity of cobalt lactate into corn vegetative tissue with and without glyphosate; assay type: in vivo; conditions: foliar spray at V4-V6, day 6
Method: A greenhouse study was completed to evaluate the absorptivity of cobalt lactate into corn vegetative tissue when applied with and without glyphosate herbicide. The corn seeds were potted in natural soil and allowed to grow to the V4-V6 growth stage. At this time the plants were treated with foliar sprays of cobalt lactate, and cobalt lactate with glyphosate and ammonium sulfate (AMS). The glyphosate was commercially available and used at the recommended use rate of 1 qt per acre. The AMS was applied as described in Example 6. Six replicate vegetative portions of the plants were sampled at days 1 and 6 after the application and analyzed for cobalt content.
The initial absorption rate was slowed with the addition of glyphosate and AMS to the cobalt lactate solution.

field corn = assay: Cobalt lactate in-furrow with field corn, greenhouse, nutrient uptake; assay type: in vivo; conditions: 5 g cobalt per acre in-furrow, 53 days of growth
corn [2] = conditions: 5 g elemental cobalt per acre in-furrow
Excerpt: Various cobalt compounds were applied in-furrow to natural soil with corn seeded, then grown in greenhouse conditions. The cobalt compounds were applied at a rate of 5 g elemental cobalt per acre and compared to an untreated control. The compounds included: cobalt acetate, cobalt carbonate, cobalt gluconate and cobalt sulfate. The trial consisted of four replicates in a randomized complete block design. The plants were harvested after 53 days of growth and measured for plant health characteristics and nutrient uptake.

[3] = 53 days of growth, vs untreated control

For cobalt lactate, the “cobalt concentration in vegetative tissue after 6 days” value (corn [1]) was “consistent between the two treatments”, the “increase of nitrogen within the vegetation over the untreated control” value (field corn) was 4.6% and the “increase of potassium within the vegetation over the untreated control” value (field corn) was 7.8%. The “nitrogen concentration increase within the root over the untreated control” value (field corn) was 2.2%, the “phosphorus concentration increase within the root over the untreated control” value (field corn) was 4.2% and the “phosphorus content within the vegetation versus untreated control” value (field corn) was “no difference”. The “potassium concentration increase within the root over the untreated control” value (field corn) was 12.2%.
With cobalt gluconate the “increase in vegetative K concentration” value (corn [2]; [3]) was 2.3%.
`CC(=O)[O-].CC(=O)[O-].[Co+2]` [cobalt acetate] was tested, and the “increase in the vegetative N content” value (corn [2]; [3]) was 1.7%, the “increase in vegetative K concentration” value (corn [2]; [3]) was 9.3% and the “tissue concentration increase Fe” value (corn [2]; vegetative tissue, 53 days) was 20.9%. For the same molecule, the “tissue concentration increase Mn” value (corn [2]; vegetative tissue, 53 days) was 37.5% and the “tissue concentration increase Zn” value (corn [2]; vegetative tissue, 53 days) was 9.4%.
In the case of `O=C([O-])[O-].[Co+2]` [cobalt carbonate], the “increase in root mass” value (corn [2]; [3]) is reported as 6.7% and the vegetative wet weight (corn [2]; [3]) is reported as “slight increase”.
